Results reported in US9688624B2, “DP2 antagonist and uses thereof” (Brickell Biotech, Inc., priority 2010, dated 2017).
Structures can show the parent of a compound that is named as a salt. Where two headings read alike, the source gives them in different places.

Columns and labels:
[1] = tested on: DK-PGD2-induced peripheral blood leukocyte influx; assay: Guinea pig IV DK-PGD2-induced peripheral blood leukocyte influx; type: in vivo; settings: for EC50 / ED50: Cavia porcellus, Leukocyte, calculated; for EC50: iv, plasma concentration; for ED50: oral
Protocol: Example 19: Guinea Pig IV-DKPGD2-Induced Peripheral Blood Leukocyte to Influx
The ability of Compound 2 to inhibit leukocyte migration in vivo was assessed using intravenous injection of 13,14-dihydro-15-keto-prostaglandin D2 (DK-PGD2). Methods were adapted from those detailed Shichijo et al., 2003, Journal of Pharmacology and Experimental Therapeutics, 307:518-525. Male Hartley guinea pigs were immunized with ovalbumin (OVA) on day 0 by intraperitoneal (IP) injection of 1 ml of a 100 μg/ml solution in Imject Alum. They were then used in the DK-PGD2 procedure between days 14 and 21. Subjects were randomly assigned to receive either vehicle (0.5% methyl cellulose, 4 ml/kg, oral (PO)) or one of three to four doses of test compound. Two hours or eighteen hours after dosing, animals were anesthetized with ketamine and challenged with DK-PGD2 (1 mg/kg, IV). Thirty minutes after IV administration, blood was collected via the marginal ear vein into EDTA tubes for cell analysis. 10 μl blood was lysed in 190 μl water followed by a further 20-fold dilution in PBS. A 10 μl fraction was mixed with equal parts trypan blue and loaded on a hemocytometer. Cells were visualized at a magnification of 40× using a LabPro light microscope and totals counted and recorded. Cells are expressed as total cells×10^8 per ml of blood Inhibition of this effect is determined statistically using Graphpad prism.

[2] = Plasma concentrations in guinea pig DK-PGD2 leukocyte influx study; type: in vivo; settings: Hartley; for concentration at 18.5 h: read-out: concentration of Compound 1 in plasma
Protocol: In the 2 hr study, intravenous DK-PGD2 (IV DK-PGD2) increased the number of peripheral blood leukocytes, mainly lymphocytes, which likely reflects recruitment from bone marrow. […] Plasma concentrations taken 2.5 hours following oral Compound 2 were 45 nM±36 and 120 nM±46 in the 10 mg/kg and 30 mg/kg dose groups, respectively.
In the 18 hr guinea pig study, a significant increase in peripheral blood leukocytes was also observed following IV DK-PGD2 challenge. […] The concentration of Compound 1 in plasma recovered 18.5 hours following oral dose was 4 nM±7, 21 nM±19 and 17 nM±10 in the 10 mg/kg, 30 mg/kg and 100 mg/kg dose groups, respectively.

[3] = Plasma concentrations in mouse smoke model; type: in vivo
Protocol: (§1) BALB/c mice were exposed to the smoke of 7 unfiltered cigarettes per day via whole-body exposure on days 0, 1, and 2 for a total of 1.75 hours per day. […] The plasma concentrations for Compound 1 measured at trough were 85 and 588 nM at 10 mg/kg and 50 mg/kg, respectively.

[4] = Thermodynamic aqueous solubility; type: physicochemical
Protocol: Example 6: Thermodynamic Aqueous Solubility
Aqueous solubility was determined by suspending sufficient compound in water to give a maximum final concentration of ≧20 mg·ml-1 of the parent free-form of the compound. The suspension was equilibrated at 25° C. for 24 hours then the pH was measured. The suspension was then filtered through a glass fibre C filter into a 96 well plate unless stated otherwise. The filtrate was then diluted by a factor of 101. Quantitation was by HPLC with reference to a standard solution of approximately 0.25 mg·ml^−1 in DMSO. Different volumes of the standard, diluted and undiluted sample solutions were injected. The solubility was calculated using the peak areas determined by integration of the peak found at the same retention time as the principal peak in the standard injection.
Analysis was performed on an Agilent HP1100 series system equipped with a diode array detector and using ChemStation software vB.02.01-SR1.

DP2 receptor = DP2 receptor (Homo sapiens (Human), UniProt Q9Y5Y4); assay: In vitro DP2/CRTH2 radioligand ([3H]PGD2) membrane binding assay
Chain of DP2 receptor (Q9Y5Y4 whole entry): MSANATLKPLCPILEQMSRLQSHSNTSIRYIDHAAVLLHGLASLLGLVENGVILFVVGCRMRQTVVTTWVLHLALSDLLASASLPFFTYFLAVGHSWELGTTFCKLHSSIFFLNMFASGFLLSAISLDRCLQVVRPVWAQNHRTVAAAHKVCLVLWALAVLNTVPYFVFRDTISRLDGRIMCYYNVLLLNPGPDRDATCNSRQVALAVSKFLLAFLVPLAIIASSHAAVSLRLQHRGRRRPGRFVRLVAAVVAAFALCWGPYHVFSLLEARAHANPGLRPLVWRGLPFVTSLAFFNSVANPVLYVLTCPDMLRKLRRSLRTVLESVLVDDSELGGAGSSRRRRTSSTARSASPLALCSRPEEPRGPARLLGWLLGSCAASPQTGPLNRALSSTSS
Protocol: Example 15: In Vitro DP2/CRTH2 Binding Assay
The ability of Compound 1 to bind to the human DP2 receptor was assessed via a radioligand binding assay using [^3H]PGD2. HEK293 cells stably expressing recombinant human DP2 are resuspended in 10 mM Hepes, 7.4 containing 1 mM DTT, lysed and centrifuged at 75,000×g to pellet the membranes. The membranes are resuspended in 10 mM Hepes, 7.4 containing 1 mM DTT and 10% glycerol to approximately 5 mg protein/ml. […] The reactions are terminated by rapid filtration through Whatman GF/C glass fibre filter plates. The filter plates were pre-soaked in 0.33% polythylenimine for 30 minutes at room temperature then washed in Wash Buffer (50 mM Hepes, 0.5 M NaCl pH 7.4) prior to harvesting. After harvesting, the filter plates are washed 3 times with 1 ml cold Wash Buffer then dried. Scintillant is then added to the plates and the radioactivity retained on the filters is determined on a Packard TopCount (Perkin Elmer). Specific binding is determined as total radioactive binding minus non-specific binding in the presence of 10 μM PGD2. IC50s were determined using GraphPad prism analysis of drug titration curves. Mouse, rat and guinea pig DP2 receptors were also investigated.
The binding potency of Compound 1 is only slightly shifted in the presence of species-specific serum albumin.

[5] = tested on: smoke-induced pulmonary inflammation; assay: Mouse smoke model of chronic obstructive pulmonary disease; type: in vivo; settings: 10 and 50 mg/kg PO daily
Protocol: Example 21: Mouse Smoke Model of Chronic Obstructive Pulmonary Disease
A mouse model of acute cigarette smoke exposure was used to determine the effects of Compound 1 on smoke-induced pulmonary inflammation.
as §1

[6] = water, listed as Amorphous Compound 2, sodium salt

COc1ccc(CC(=O)O)cc1Oc1ccc(NC(=O)C(C)(C)C)cc1CSC(C)(C)C [Compound 1, 2-(3-(2-((tert-butylthio)methyl)-4-(2,2-dimethyl-propionylamino)phenoxy)-4-methoxyphenyl)acetic acid]
EC50 ([1]; 18 hr study, read-out: 18-hr EC50, inhibition of IV-DK-PGD2-induced leukocyte influx): 18 nM
concentration at 18.5 h ([2]; 18.5 hours after oral 10 mg/kg): 4 nM
concentration at 18.5 h ([2]; 18.5 hours after oral 30 mg/kg): 21 nM
concentration at 18.5 h ([2]; 18.5 hours after oral 100 mg/kg): 17 nM
plasma concentration for Compound 1 at trough ([3]; 10 mg/kg PO daily): 85 nM
plasma concentration for Compound 1 at trough ([3]; 50 mg/kg PO daily): 588 nM
Solubility mg/ml Free Base equivalent ([4]; test solvent pH 1.5, 25° C., 24 hours, listed as Compound 1 Pattern 1): 0.013 mg/mL
Solubility mg/ml Free Base equivalent ([4]; test solvent pH 4.0, 25° C., 24 hours, listed as Compound 1 Pattern 1): 0.0059 mg/mL
solubility at 24 h ([4]; test solvent pH 5.0, 25 °C, pH 5, aqueous buffer, thermodynamic from solid, test solvent pH 5.0, 25° C., 24 hours, read-out: Solubility mg/ml Free Base equivalent): 0.027 mg/mL
Solubility mg/ml Free Base equivalent ([4]; test solvent pH 6.5, 25° C., 24 hours, listed as Compound 1 Pattern 1): 0.39 mg/mL
Solubility mg/ml Free Base equivalent ([4]; test solvent pH 7.4, 25° C., 24 hours, listed as Compound 1 Pattern 1): 7.6 mg/mL
Thermodynamic solubility in water ([4]; water, listed as Pattern 1 of Compound 1): 6200 µg/mL
IC50 (DP2 receptor; average, 0.2% species-specific albumin, read-out: IC50, radioligand membrane binding on human DP2): 19.7 nM
IC50 (DP2 receptor; average, without serum albumin, read-out: IC50, inhibition of radiolabeled PGD2 binding to human DP2): 5.2 nM
IC50 (DP2 receptor; in the presence of 0.5% serum albumin, read-out: IC50, binding to DP2): 19.7 nM

COc1ccc(CC(=O)O)cc1Oc1ccc(NC(=O)C(C)(C)C)cc1CSC(C)(C)C [Compound 2, 2-(3-(2-((tert-butylthio)methyl)-4-(2,2-dimethyl-propionylamino)phenoxy)-4-methoxyphenyl)acetic acid, sodium salt]
% inhibition of DK-PGD2-induced peripheral blood leukocyte increase ([1]; 2 hr study, 10 mg/kg oral): 19 (±23) %
% inhibition of DK-PGD2-induced peripheral blood leukocyte increase ([1]; 2 hr study, 30 mg/kg oral): 107 (±9) %
% inhibition of peripheral blood leukocyte numbers ([1]; 18 hr study, 10 mg/kg oral): 29 (±14) %
% inhibition of peripheral blood leukocyte numbers ([1]; 18 hr study, 30 mg/kg oral): 50 (±8) %
% inhibition of peripheral blood leukocyte numbers ([1]; 18 hr study, 100 mg/kg oral): 77 (±12) %
EC50 ([1]; 2 hr study, read-out: EC50 associated with ED50): 50 nM
ED50 ([1]; 2 hr study): 11 mg/kg
ED50 ([1]; 18 hr study): 63 mg/kg
BALF lymphocytes [5]: trend toward reducing
decrease of BALF neutrophils compared to the untreated group [5]: approx. 50%
concentration at 2.5 h ([2]; 2.5 hours after oral 10 mg/kg): 45 nM
concentration at 2.5 h ([2]; 2.5 hours after oral 30 mg/kg): 120 nM
Solubility mg/ml Free Base equivalent ([4]; test solvent pH 1.5, 25° C., 24 hours, listed as Compound 2 Pattern 1, sodium salt): 0.0058 mg/mL
pH of Unfiltered Saturated solution ([4]; test solvent pH 1.5, listed as Compound 2 Pattern 1, sodium salt): 2.73
Solubility mg/ml Free Base equivalent ([4]; test solvent pH 4.0, 25° C., 24 hours, listed as Compound 2 Pattern 1, sodium salt): 0.0023 mg/mL
pH of Unfiltered Saturated solution ([4]; test solvent pH 4.0, listed as Compound 2 Pattern 1, sodium salt): 4.67
Solubility mg/ml Free Base equivalent ([4]; test solvent pH 5.0, 25° C., 24 hours, listed as Compound 2 Pattern 1, sodium salt): 0.04 mg/mL
pH of Unfiltered Saturated solution ([4]; test solvent pH 5.0, listed as Compound 2 Pattern 1, sodium salt): 5.88
Solubility mg/ml Free Base equivalent ([4]; test solvent pH 6.5, 25° C., 24 hours, listed as Compound 2 Pattern 1, sodium salt): 4.1 mg/mL
pH of Unfiltered Saturated solution ([4]; test solvent pH 6.5, listed as Compound 2 Pattern 1, sodium salt): 7.06
Solubility mg/ml Free Base equivalent ([4]; test solvent pH 7.4, 25° C., 24 hours, listed as Compound 2 Pattern 1, sodium salt): 18.0 mg/mL
pH of Unfiltered Saturated solution ([4]; test solvent pH 7.4, listed as Compound 2 Pattern 1, sodium salt): 7.97
Thermodynamic solubility in water [4, 6]: > 20000 µg/mL
pH of unfiltered solution [4, 6]: 8.18
